From patent US20130005759A1, “SMALL MOLECULE MODIFIERS OF MICRORNA MIR-122” (North Carolina State University, priority 2010, published 2013)
In the oligonucleotide strings, read from the 5' end, every base follows the letter of its sugar. An asterisk marks phosphorothioate; unmarked linkages are phosphodiester. Other units and linkages are bracketed, terminal groups are in braces. A string of capitals states the bases alone. m = 2'-O-methyl

Assays:
miR-122 = experiment: psiCHECK-miR122 dual luciferase reporter assay in Huh7 cells; format: cell-based, human; conditions: for miR-122 inhibitory activity (structure-activity, in words) / miR-122 activation (structure-activity, in words): Huh7, 10 μM; for miR-122 inhibitory activity (structure-activity, in words): relative to parent inhibitor 1 or 2; for miR-122 activation (structure-activity, in words): relative to parent activator 3
Text: A miRNA small molecule modifier screen for miR-122 was developed based on the psiCHECK-2 (Promega) reporter plasmid (FIG. 9). This construct expresses both Renilla luciferase as well as firefly luciferase, allowing for the normalization of the signal to account for differential cellular viability and variability in transfection efficiency. The miR-122 target sequence was inserted downstream of the Renilla luciferase gene, between the PmeI and SgfI restriction sites. In another aspect of the invention, plasmids expressing luciferase or another reporter gene such as for example, fluorescent reporters (GFP and variants thereof, DsRed, etc.) or beta-galactosidase can be used to screen for small molecule modifiers of miR-122. The mi-122 target sequence may be upstream or downstream of the reporter gene. Multiple miR-122 target sites can also be inserted into or be present in the plasmid.
The presence of mature miR-122 will lead to a decrease in the Renilla luciferase signal (FIG. 1a). The ability to detect endogenous miR-122 was validated by transfecting the generated psiCHECK-miR122 construct into Huh7 and HeLa cells. After 48 hour incubation, the cells were assayed using a Dual Luciferase Assay Kit (Promega). In another embodiment, the cells can be incubated for about 24-96 hours. The Dual Luciferase Assay Kit provides a means to measure the amount of the luciferases by generating a luminescent signal. Using this assay the luminescence from the firefly luciferase reaction may be quenched while the luminescent reaction of Renilla luciferase can be activated. Other assays and procedures that can determine the amount of the one or more reporter genes or miR-122 expression, activity or function can be used. An example of another assay is Dual-Glo Assay (Promega).
The psiCHECK-miR122 vector was then employed in a small molecule screen in Huh7 cells to discover modifiers of miR-122 function. Other cells that express miR-122 such as HepG2 and Hep3B can be used in addition to or instead of Huh7 cells. An increase in the relative Renilla luciferase signal indicates a miR-122 inhibitor, while a reduction in the luciferase signal indicates a miR-122 activator. A genus of compounds that may have activity as modifiers of miR122 function are the Diversity Set II (1364 compounds) from the NCI Developmental Therapeutics Program was screened using Huh7 cells containing the psiCHECK-miR122 reporter. Cells were exposed to the small molecules and the relative luciferase signal was measured after 48 hours using a Dual Luciferase Assay Kit (Promega). In another embodiment the cells can be exposed to the small molecules for about 24-96 hours. As explained above, other assays and procedures that can determine the amount of the one or more reporter genes or miR-122 expression, activity or function can be used.
The analogs were screened for activity using the previously described miR-122 assay. All cells were treated with 10 μM of a compound and experiments were performed in triplicate to ensure statistical validity. The data was normalized to a 1% DMSO control and is reported in relative luciferase units (RLU). The standard deviation was calculated from three independent assays. Some analogs of miR-122 inhibitor compound 1 are:
Huh7 and HeLa cells were transfected at approximately 60% confluency with either the psiCHECK-Control plasmid (the original psiCHECK-2 plasmid containing no known miRNA binding site) or the psiCHECK-miR122 plasmid (0.5 μg) using X-tremGENE transfection reagent (3:2 reagent/DNA ratio; Roche) in Opti-Mem media (Invitrogen). All transfections were performed in triplicate for statistical analysis. The cells were incubated at 37° C. for 4 hours followed by the replacement of transfection media with standard DMEM growth media. After 48 hours of incubation the media was removed, cells were lysed and assayed with a Dual Luciferase Assay Kit (Promega) using a Wallac VICTOR^3V luminometer with a measurement time of 1 s and a delay time of 2 s. […]

[1] = tested on: psiCHECK-control vector (no miRNA target sequence); experiment: psiCHECK-control vector luciferase counter-assay in Huh7 cells; format: cell-based, human; conditions: Huh7, 10 μM
Text: (FIG. 3). […] The relative luciferase units were normalized to the corresponding DMSO signals. […] This confirms that compound 2 and the antagomir have similar effects on the reduction of miR-122 function in Huh7 cells.
Compounds which elicited greater than a 5-fold increase of the relative luciferase units signal compared to the DMSO control were then re-assayed in triplicate to confirm the validity of the hit compound. Upon secondary validation of miR-122 inhibition, identical assays were repeated with the psiCHECK-Control vector to ascertain that the effect is specific to the miR-122 pathway, and not simply affecting the Renilla gene. In order to assess the relative degree of miR-122 inhibition, Huh7 cells were also co-transfected with either the psiCHECK-Control plasmid or the psiCHECK-miR122 plasmid (0.5 μg) and a miR-122 2′-OMe PS antagomir (50 pmol; 5′ […] (SEQ ID NO:4) 3′; IDT DNA)(2) using the X-tremGENE transfection reagent (Roche Applied Science, 4:2 reagent/DNA ratio). The transfection media was replaced with standard DMEM growth media after 4 hours and the cells were incubated for 48 hours prior to analysis with a Dual Luciferase Assay Kit (FIG. 3).

[2] = tested on: hepatitis C virus (HCV) genotype 1a H77c RNA; experiment: HCV replication in Huh7 cells (HCV RNA by quantitative RT PCR); format: cell-based; conditions: Huh7, 10 μM (antagomir transfected), 48 hours
Protocol: Aberrantly regulated miR-122 is involved in the development of heptocellular carcinoma (HCC). miR-122 is a cellular component required by hepatitis C virus (HCV) for viral replication. […] Due to the efficient down-regulation of miRNA-122 by the small molecule inhibitors 1 and 2, both compounds were tested for their ability to inhibit HCV replication in Huh7 cells. The pHtat2Neo/QR/KR/FV/SI plasmid (provided by Dr. Stanley Lemon of University of Texas Medical Branch (UTMB)) was used to generate genotype 1a H77c RNA, which was subsequently transfected into Huh7 cells.^16 The cells were then either transfected with a miR-122 antagomir (positive control), or treated with compounds 1 and 2 (10 μM), or DMSO (negative control). After 48 hours, total RNA was isolated and HCV RNA levels were measured by quantitative RT PCR (FIG. 7). In agreement with previous reports, the antagomir reduced HCV RNA levels to 20%.^6 Moreover, the small molecule miR-122 inhibitors 1 and 2 elicited a reduction in viral load to 48% and 47%, respectively.
The pHtat2Neo/QR/KR/FV/SI plasmid (provided by Dr. Stanley Lemon)^16 was linearized using XbaI (10 units, 50 μL reaction; New England Biolabs), followed by transcription with T7 RNA Polymerase (6 h, 37° C.), and purification on Microcon 10 columns. Huh7 cells were then grown to 60% confluency in a 6 well plate and transfected with 1 μg RNA using X-tremGENE transfection reagent (Roche Applied Science, 3:2 reagent/RNA ratio) in Opti-Mem media (Invitrogen). After a 4 hour incubation at 37° C., the transfection media was removed and replaced with standard growth media (2 mL) supplemented with 10 μM of 1 or 2 (1% DMSO final concentration). All experiments were conducted in triplicate for statistical validation. […] Quantitative RT-PCR was then performed as previously described using the general HCV RT-PCR Primers (5′: […] 3′ (SEQ ID NO:7) and 5′ […] 3′) (SEQ ID NO:8) and GADPH primers (5′ […] 3′ (SEQ ID NO:9) and 5′ […] 3′) (SEQ ID NO:10) as a standard control.

## O=C(NCc1ccc2ccccc2c1)c1ccc(Cl)cc1Cl [1e]
miR-122
  miR-122 inhibitory activity (structure-activity, in words): virtually complete loss of miR-122 inhibitory activity

## O=C(NCc1ccc2ccccc2c1)c1ccc(Cl)cc1Cl [1f]
miR-122
  miR-122 inhibitory activity (structure-activity, in words): virtually complete loss of miR-122 inhibitory activity

## O=C(Nc1ccccc1)c1ccc(Cl)cc1Cl [1g, 2,4-Dichloro-N-phenylbenzamide]
miR-122
  miR-122 inhibitory activity (structure-activity, in words): complete loss of miR-122 inhibitory activity

## Nc1ccc(NC(=O)c2ccc(Cl)cc2Cl)cc1 [1h, N-(4-Aminophenyl)-2,4-dichlorobenzamide]
miR-122
  miR-122 inhibitory activity (structure-activity, in words): complete loss of miR-122 inhibitory activity

## O=C(Nc1ccc(I)cc1)c1ccc(Cl)cc1Cl [1i, 2,4-Dichloro-N-(4-iodophenyl)benzamide]
miR-122
  miR-122 inhibitory activity (structure-activity, in words): complete loss of miR-122 inhibitory activity

## O=C(NCc1ccc2ccccc2c1)c1ccc(Cl)cc1Cl [1m]
miR-122
  miR-122 inhibitory activity (structure-activity, in words): substantial loss of activity

## O=S(=O)(c1ccc2c(c1)CCCN2)N1CCCc2ccccc21 [2b, 6-(3,4-Dihydroquinolin-1(2H)-ylsulfonyl)-1,2,3,4-tetrahydroquinoline]
miR-122
  miR-122 inhibitory activity (structure-activity, in words): loss of activity

## O=S(=O)(Nc1ccccc1)c1ccc2c(c1)CCCN2 [2c, N-Phenyl-1,2,3,4-tetrahydroquinoline-6-sulfonamide]
miR-122
  miR-122 inhibitory activity (structure-activity, in words): Activity was maintained
miR-122; Huh7, psiCHECK-miR122, 10 μM, mean ± SD of three independent assays
  relative luciferase units (RLU) normalized to a DMSO control: 9.9±3.1 RLU

## Nc1ccc(NS(=O)(=O)c2ccc3c(c2)CCCN3)cc1 [2d, N-(4-Aminophenyl)-1,2,3,4-tetrahydroquinoline-6-sulfonamide]
miR-122
  miR-122 inhibitory activity (structure-activity, in words): lost

## CN(C)CCN1C(=O)c2cccc3cccc(c23)C1=O [3a, 2-(2-(Dimethylamino)ethyl)-1H-benzo[de]isoquinoline-1,3(2H)-dione]
miR-122
  miR-122 activation (structure-activity, in words): retention of activity

## NCCN1C(=O)c2cccc3cc(N)cc(c23)C1=O [3c, 5-Amino-2-(2-aminoethyl)-1H-benzo[de]isoquinoline-1,3(2H)-dione]
miR-122
  miR-122 activation (structure-activity, in words): increasing loss of activity

## Nc1cc2c3c(cccc3c1)C(=O)N(Cc1ccc3ccccc3c1)C2=O [3g, 5-amino-2-(naphthalen-2-ylmethyl)-1H-benzo[de] isoquinoline-1,3(2H)-dione]
miR-122
  miR-122 activation (structure-activity, in words): complete loss of miR-122 activation

## antagomir: miR-122 2′-OMe PS antagomir, 5′ ACAAACACCAUUGUCACACUCCA 3′ (SEQ ID NO:4), positive control (mA*mC*mA*mA*mA*mC*mA*mC*mC*mA*mU*mU*mG*mU*mC*mA*mC*mA*mC*mU*mC*mC*mA) [reference compound]
miR-122; Huh7, 10 μM (antagomir transfected), normalized to DMSO
  Renilla luciferase expression with psiCHECK-miR122 (in words): significant increase
[1]
  normalized Renilla luciferase signal with psiCHECK-control vector: no statistically significant alteration
[2]
  HCV RNA levels / viral load reduced to: 20%
